Converted amounts (≈) assume the structure as drawn.
Key:
[1] = system: Streptococcus pyrogenes ATCC 19615; assay: MIC and MBC measurement with Streptococcus pyogenes ATCC 19615; assay type: cell-based; details: Table 10
Source text: (§1) General: Microorganisms. Reference strains were purchased from the American Type Culture Collection (Rockville, Md.) or Bactrol disks from Difeo Laboratories (Detroit, Mich.). The following specific ATCC strains were used: 10798 Escherichia coli, 25922 Escherichia coli, 13883 Klebsiella pneumoniae, 27853 Pseudomonas aeruginosa, 14028 Salmonella typhimurium, 29212 Enterococcus faecalis, 25923 Staphylococcus aureus, 19615 Streptococcus pyogenes, and 90028 Candida albicans. Bacterial strains were maintained on Mueller-Hinton agar plates, and Candida albicans was maintained on Sabouraud Dextrose agar plates.
(§2) Tryptic soy broth (TSB) was made by dissolving 27.5 grams of tryptic soy broth without dextrose (DIFCO Laboratories) in 1 liter of deionized water and sterilizing at 121° C. for 15 minutes. Solid agar (TSA) plates were made by dissolving 6.4 grams of tryptic soy broth and 12 grams of agar (purified grade, Fischer Scientific) in 800 mL of deionized water and sterilizing at 121° C. for 20 minutes. Aliquots (20 mL) of the homogeneous solution were then poured in sterile plastic petri dishes (100×15 mm, Fisher Scientific). Solutions of compounds were made by dissolving the HCl salt of the respective compound into an appropriate amount of deionized and sterilized water followed by microfiltration.
(§3) Aliquots of 1 mL of the suspension were added to test tubes containing 1 mL TSB and incrementally varied concentrations of cholic acid derivatives and/or erythromycin or novobiocin. In the sensitization experiments, erythromycin or novobiocin were added 15 minutes later than the cholic acid derivatives. The samples were subjected to stationary incubation at 37° C. for 24 hours. Sample turbidity was determined by measuring absorption at 760 nm (HP 8453 UV-Visible Chemstation, Hewlett Packard). Additionally, an alliquot from each of the samples showing no measurable turbidity was subcultured on TSA plates (alliquots were diluted to provide fewer than 300 CFU). Colonies that grew on the subculture after overnight incubation were counted and the number of CFU/mL in the samples were calculated. The calculated values were compared to the number of CFU/mL in the original inoculum.

E. coli (ATCC 25922) [2] = assay: Sensitization to erythromycin, E. coli (ATCC 25922); assay type: cell-based, Escherichia coli
Protocol: FICs can be performed by checkerboard titrations of compounds in one dimension of a microtiter plate, and of antibiotics in the other dimension, for example. The FIC is calculated by looking at the impact of one antibiotic on the MIC of the other and vice versa. […] Preferably, an FIC of less than 0.5 is obtained for synergism. As used herein, FIC can be determined as follows:
as §3
Concentrations of 0.5, 1.0 or 3.0 μg/mL of these antibiotics were used, and the concentrations of the cholic acid derivatives required to inhibit bacterial growth of Gram-negative strains were determined.
(§4) Minimum inhibition concentrations (MIC) and minimum hemolytic concentrations (MHC) were measured as described in Li et al., Antimicrob. Agents. Chemother., 1999, 43, 1347.

[3] = system: Candida albicans ATCC 90028; assay: MIC and MBC measurement with Candida albicans ATCC 90028; assay type: cell-based; details: Table 10
Source text: as §1, §2, §3

E. coli (ATCC 25922) [4] = assay: MIC and MBC measurement with E. coli (ATCC 25922); assay type: cell-based, Escherichia coli
Source text: as §1, §2
as §3, with “inoculum. […]” for “inoculum.”

[5] = system: Pseudomonas aeruginosa (ATCC 27853); assay: Sensitization to erythromycin, Pseudomonas aeruginosa (ATCC 27853); assay type: cell-based; details: Table 11, Pseudomonas aeruginosa ATCC 27853
Protocol: Alternatively, “fractional inhibitory concentration (FIC)” is also useful for determination of synergy between the compounds of the invention, or the compounds in combination with known antibiotics. FICs can be performed by checkerboard titrations of compounds in one dimension of a microtiter plate, and of antibiotics in the other dimension, for example. The FIC is calculated by looking at the impact of one antibiotic on the MIC of the other and vice versa. […] Preferably, an FIC of less than 0.5 is obtained for synergism. As used herein, FIC can be determined as follows:
as §3, with “inoculum. […]” for “inoculum.”
To measure permeabilization, the FIC values for compounds 1, 2, 5, 106, 10, 112, 133, and 134 with erythromycin, novobiocin, and rifampicin were determined. Concentrations of 0.5, 1.0 or 3.0 μg/mL of these antibiotics were used, and the concentrations of the cholic acid derivatives required to inhibit bacterial growth of Gram-negative strains were determined.

E. coli (ATCC 10798) = assay: MIC and MBC measurement with E. coli (ATCC 10798); assay type: cell-based, Escherichia coli; details: FIG. 5; strain not named
Source text: as §1, §2, §3

[6] = system: Salmonella typhimurium ATCC 14028; assay: MIC and MBC measurement with Salmonella typhimurium ATCC 14028; assay type: cell-based; details: Table 10
Source text: as §1, §2, §3

[7] = system: Pseudomonas aeruginosa (ATCC 27853); assay: MIC and MBC measurement with Pseudomonas aeruginosa (ATCC 27853); assay type: cell-based; details: Table 10; Pseudomonas aeruginosa ATCC 27853
Source text: as §1, §2, §3

[8] = Protocol: as §4
[9] = system: Klebsiella pneumonia ATCC 13883; assay: MIC and MBC measurement with Klebsiella pneumoniae ATCC 13883; assay type: cell-based; details: Table 10
Source text: as §1, §2, §3

[10] = system: Staphylococcus aureus ATCC 25923; assay: MIC and MBC measurement with Staphylococcus aureus ATCC 25923; assay type: cell-based
Source text: as §1, §2
as §3, with “inoculum. […]” for “inoculum.”

[11] = system: Enterococcus faecalis ATCC 29212; assay: MIC and MBC measurement with Enterococcus faecalis ATCC 29212; assay type: cell-based; details: Table 10
Source text: as §1, §2, §3

Gram-negative bacteria = assay: Sensitization to erythromycin, ester and amide side chain compounds (Table 14); assay type: cell-based; details: in words; compared with Table 14 compounds
Protocol: as §3
Ability to permeabilize outer membrane: Compounds 11, 106, and 108-114 (FIG. 1) were tested for antibiotic activity. They were also tested for the ability to permeabilize the outer membrane of Gram-negative bacteria, causing sensitization to hydrophobic antibiotics that cannot cross the outer membrane. The permeabilization of the outer membrane was measured using erythromycin and novobiocin.
Ester and amide side chains: Additional compounds, for example, compounds with amide and ester side chains, were tested.

[12] = Table 10, Escherichia coli ATCC 25922
[13] = Table 10, Staphylococcus aureus ATCC 25923

Which MBC [1] does the source give for `CCCCCCCCNCCC[C@@H](C)[C@H]1CC[C@H]2[C@@H]3[C@H](OCCCN)C[C@@H]4C[C@H](OCCCN)CC[C@]4(C)[C@H]3C[C@H](OCCCN)[C@]12C` [Compound 133] here?
Its MBC is 2.9 µg/mL (≈ 4.28 µM).

And the MIC [1]?
The MIC was 2.3 µg/mL (≈ 3.4 µM).

And the FIC (E. coli (ATCC 25922) [2]; Table 11, Escherichia coli ATCC 25922, erythromycin (by order))?
Its FIC is 0.42.

And the “concentration required to inhibit bacterial growth with antibiotic” value (E. coli (ATCC 25922) [2]; Table 11, Escherichia coli ATCC 25922, erythromycin (by order) at 0.5, 1.0 or 3.0 μg/mL)?
Its value is 1.2 µg/mL.

What about the MBC [3] of the same compound?
The MBC was 45 µg/mL (≈ 66.5 µM).

And the MIC [3]?
Its MIC is 31 µg/mL (≈ 45.8 µM).

What about the MBC (E. coli (ATCC 25922) [4]; [12]) of the same compound?
The MBC was 3.0 µg/mL (≈ 4.43 µM).

What about the MIC (E. coli (ATCC 25922) [4]; [12]) of the same compound?
Its MIC is 3.0 µg/mL (≈ 4.43 µM).

What about the FIC ([5]; erythromycin (by order)) of the same compound?
The FIC was 0.21.

And the “concentration required to inhibit bacterial growth with antibiotic” value ([5]; erythromycin (by order) at 0.5, 1.0 or 3.0 μg/mL)?
The value was 0.35 µg/mL.

And the “MIC (in words)” value (E. coli (ATCC 10798))?
Its value is “very low”.

What about the MBC [6] of the same compound?
Its MBC is 6.7 µg/mL (≈ 9.89 µM).

What about the MIC [6] of the same compound?
The MIC was 2.6 µg/mL (≈ 3.84 µM).

What about the MBC [7] of the same compound?
Its MBC is 3.2 µg/mL (≈ 4.73 µM).

What about the MIC [7] of the same compound?
The MIC was 2.0 µg/mL (≈ 2.95 µM).

What about the MHC [8] of the same compound?
Its MHC is 29 µg/mL.

What about the MBC [9] of the same compound?
The MBC was 5.8 µg/mL (≈ 8.57 µM).

What about the MIC [9] of the same compound?
Its MIC is 2.6 µg/mL (≈ 3.84 µM).

What about the MBC [10, 13] of the same compound?
Its MBC is 2.0 µg/mL (≈ 2.95 µM).

And the MIC [10, 13]?
Its MIC is 0.4 µg/mL (≈ 0.591 µM).

What about the MBC [11] of the same compound?
Its MBC is 5.5 µg/mL (≈ 8.12 µM).

And the MIC [11]?
Its MIC is 3.1 µg/mL (≈ 4.58 µM).

Which results are given for `C[C@H](CCC(=O)O)[C@H]1CC[C@H]2[C@@H]3[C@H](OC(=O)CN)C[C@@H]4C[C@H](OC(=O)CN)CC[C@]4(C)[C@H]3C[C@H](OC(=O)CN)[C@]12C` [Compound 327]?
c: concentration required to lower the MIC of erythromycin from 36 to 1 μg/mL (E. coli (ATCC 25922) [2]; Table 16, E. coli): >100 µg/mL; MIC (MIC^b) (E. coli (ATCC 25922) [4]; Table 16, E. coli (ATTC 25922)): >100 µg/mL; MHC (minimum hemolytic concentration) [8]: >100 µg/mL; MIC (MIC^a) ([10]; Table 16, S. aureus (ATTC 25923)): >100 µg/mL

For `C[C@H](CCCO)[C@H]1CC[C@H]2[C@@H]3[C@H](N)C[C@@H]4C[C@H](N)CC[C@]4(C)[C@H]3C[C@H](N)[C@]12C` [Compound 206], which “activity as a permeabilizer” value (Gram-negative bacteria) is on record?
The value was “ineffective as a permeabilizer”.

Reference: US7598234B2, “Steroid derived antibiotics” (Brigham Young University, priority 1998, dated 2009)
